Consider eight substances from publication PMC5603908 (Biochemistry, 2017).

No end group written: not given here. Where only a bound is given, the exact number is not on record here.

One data set deals with E. coli ATCC 25922. To be noted: minimal inhibitory concentration, microdilution method.
Data set [1] concerns methicillin-resistant S. aureus (MRSA) USA300. To be noted: minimal inhibitory concentration, microdilution method. (Dilution methods test growth across graded concentrations, often in twofold steps.)
The test system of a further data set is S. aureus USA300. To be noted: after peptide treatment; cited from earlier work.
The next data set concerns human HEK293 cells. As to conditions: cited from earlier work.
Another data set concerns human HaCaT cells. To be noted: cited from earlier work.

Turning to RWWLRRIW-NH2 [W1R], the “E. coli (MIC)” value in the data set with E. coli ATCC 25922 was determined as 25 µM. The substance also gave an HL50 with human red blood cells greater than 200 µM.
For the substance WRWLRRIW-NH2 [W2R], the “E. coli (MIC)” value in the data set on E. coli ATCC 25922 is 25 µM. In data set [1], the “S. aureus (MIC)” value was 6.2 µM. In the data set with human red blood cells, this substance gave an HL50 of 100 µM.
With WWRLRRIW-NH2 [W3R], the “E. coli (MIC)” value with E. coli ATCC 25922 was 25 µM. This substance also displayed an HL50 in the data set on human red blood cells greater than 200 µM.
As for WWWLRKIW-NH2 [TetraF2W-RK], the “time to entry of non-permeable dye FITC into S. aureus” value with S. aureus USA300 was 30 s.
Regarding WWWLRRIR-NH2 [W8R], the “E. coli (MIC)” value in the data set with E. coli ATCC 25922 amounted to 25 µM. Further, the HL50 with human red blood cells is greater than 200 µM.
For the substance WWWLRRIW-NH2 [WT], the “cytotoxicity” value in the data set on human HEK293 cells and with human HaCaT cells was “less cytotoxic” in each case. In addition, the “E. coli (MIC)” value in the data set on E. coli ATCC 25922 is 6.2 µM. Further, the “S. aureus (MIC)” value in data set [1] was found to be 3.1 µM. In the data set on human red blood cells, this substance displayed an HL50 of 35 µM.
As to WWWLRRRW-NH2 [I7R], in the data set with E. coli ATCC 25922, the “E. coli (MIC)” value came to 6.2 µM. Further, in data set [1], the “S. aureus (MIC)” value came out at 3.1 µM. In the data set with human red blood cells, this substance registered an HL50 of 150 µM.
For WWWRRRIW-NH2 [L4R], the “E. coli (MIC)” value with E. coli ATCC 25922 was 25 µM. In addition, the HL50 in the data set with human red blood cells is greater than 200 µM.
